In patent publication US20230146455A1, “TREATMENT OF INFLAMMATORY DISEASES WITH PEPTIDES AND PHARMACEUTICAL COMPOSITIONS” (Yuyu Pharma, Inc., priority 2020, published 2023):
Values joined by “and” are separate entries in the source; they are usually repeats but may differ in a detail not shown here. Equal values may be shown once. Where a SMILES comes first, the peptide text is derived from it. [ ]: non-standard residue; d: D form. Hyp = O=C(O)[C@@H]1C[C@@H](O)CN1

Key:
[1] = PBMC cell counts (total, live, viability; trypan blue, Countess) with and without LPS and test articles (Example 9); type: cell-based, human; conditions: human, PBMCs, 24 hr
Protocol: (§1) Treatment Human PBMCs were pretreated with YY-101, YDE-011 and YDE-043 or reference compound; Xiidra® at various concentration (ranging from 1 nM to 100 uM) for 2 h before stimulation. An equal volume of 0.5% DMSO was used as a vehicle control. Then, the cells were treated with LPS at 5 ug/ml. The supernatants from treated cells were harvested at 24 h and placed in a 96 well for Luminex cytokine & chemokine profiling using a Luminex 200 multiplex assay (Luminex; R&D system, USA).
(§2) The main study arm with triplicate wells per group in a 24-well plate: • 1. Blank • 2. PBMC: 0.5% DMSO • 3. PBMC+LPS (5 ug/ml) • 4. PBMC+YY-101 100 uM • 5. PBMC+YY-101 10 uM • 6. PBMC+YY-101 1 uM • 7. PBMC+YY-101 0.1 uM • 8. PBMC+YY-101 0.01 uM • 9. PBMC+LPS (5 ug/ml)+Xiidra®100 uM • 10. PBMC+LPS (5 ug/ml)+Xiidra® 10 uM • 11. PBMC+LPS (5 ug/ml)+Xiidra® 1 uM • 12. PBMC+LPS (5 ug/ml)+Xiidra®0.1 uM • 13. PBMC+LPS (5 ug/ml)+Xiidra®0.01 uM • 14. PBMC+LPS (5 ug/ml)+Xiidra®0.001 uM • 15. PBMC+LPS (5 ug/ml)+YY-101 100 uM • 16. PBMC+LPS (5 ug/ml)+YY-101 10 uM • 17. PBMC+LPS (5 ug/ml)+YY-101 1 uM • 18. PBMC+LPS (5 ug/ml)+YY-101 0.1 uM • 19. PBMC+LPS (5 ug/ml)+YY-101 0.01 uM • 20. PBMC+LPS (5 ug/ml)+YY-101 0.001 uM • 21. PBMC+LPS (5 ug/ml)+YDE-011 100 uM • 22. PBMC+LPS (5 ug/ml)+YDE-011 10 uM • 23. PBMC+LPS (5 ug/ml)+YDE-011 1 uM • 24. PBMC+LPS (5 ug/ml)+YDE-011 0.1 uM • 25. PBMC+LPS (5 ug/ml)+YDE-011 0.01 uM • 26. PBMC+LPS (5 ug/ml)+YDE-011 0.001 uM • 27. PBMC+LPS (5 ug/ml)+YDE-043 100 uM • 28. PBMC+LPS (5 ug/ml)+YDE-043 10 uM • 29. PBMC+LPS (5 ug/ml)+YDE-043 1 uM • 30. PBMC+LPS (5 ug/ml)+YDE-043 0.1 uM • 31. PBMC+LPS (5 ug/ml)+YDE-043 0.01 uM • 32. PBMC+LPS (5 ug/ml)+YDE-043 0.001 uM
The number of PBMCs was measured after 24 hr of treatment. The culture both and trypan blue were diluted 1:1 and 10 ul was added to Countess cell counting chamber (Thermo fisher, USA). The number of PBMCs was measured using a Countess automated cell counter (Thermo fisher, USA).

IFN-gamma = test: Example 9 Luminex, LPS hPBMCs: IFN-gamma; type: cell-based, human
Protocol: as §1, §2
Multiplex assay was used to measure 30 cytokines and chemokines. The 1:2, 1:10 and 1:200 diluted cell supernatant and serial dilution of the standard were dispensed into a 96 well plate at 50 ul/well. Then, the pre-mixed cocktail of antibody-coated magnetic beads was dispensed at 50 ul/well and incubated at room temperature for 2 h in a horizontal orbital microplate shaker at 800±500 rpm. The beads were washed using a magnetic device to prevent loss. The biotin-antibody was dispensed in 50 ul of each well and incubated at room temperature for 1 h in a shaker at 800±500 rpm. After washing, streptavidin-PE was added at 50 ul/well and incubated at room temperature for 30 min in a shaker under the same conditions. Finally, after washing, wash buffer (100 ul/well) was added to the plate and incubated in a shaker for 2 min. The Luminex™ 200 setting were set according to the manufacturer's protocol. The data was calculated with a standard five-parameter logistic nonlinear regression analysis of the data (xPonent software 4.2, USA). The levels of cytokine/chemokine are normalized to the live cell counts (1×10^5 cells/mL) and presented as concentrations per mL (pg/mL or ng/mL).

[2] = PBMC + LPS(5 ug/ml) + test article 0.001 uM, Mean
[3] = PBMC + LPS(5 ug/ml) + test article 0.001 uM, single replicates
[4] = PBMC + LPS(5 ug/ml) + test article 0.01 uM, Mean
[5] = PBMC + LPS(5 ug/ml) + test article 0.01 uM, single replicates
[6] = PBMC + LPS(5 ug/ml) + test article 0.1 uM, Mean
[7] = PBMC + LPS(5 ug/ml) + test article 0.1 uM, single replicates
[8] = PBMC + LPS(5 ug/ml) + test article 1 uM, Mean
[9] = PBMC + LPS(5 ug/ml) + test article 1 uM, single replicates
[10] = PBMC + LPS(5 ug/ml) + test article 10 uM, Mean
[11] = PBMC + LPS(5 ug/ml) + test article 10 uM, single replicates
[12] = PBMC + LPS(5 ug/ml) + test article 100 uM, Mean
[13] = PBMC + LPS(5 ug/ml) + test article 100 uM, single replicates
[14] = PBMC + test article 0.01 uM, no LPS, Mean
[15] = PBMC + test article 0.01 uM, no LPS, single replicates
[16] = PBMC + test article 0.1 uM, no LPS, Mean
[17] = PBMC + test article 0.1 uM, no LPS, single replicates
[18] = PBMC + test article 1 uM, no LPS, Mean
[19] = PBMC + test article 1 uM, no LPS, single replicates
[20] = PBMC + test article 10 uM, no LPS, Mean
[21] = PBMC + test article 10 uM, no LPS, single replicates
[22] = PBMC + test article 100 uM, no LPS, Mean
[23] = PBMC + test article 100 uM, no LPS, single replicates

Compound: CC(C)C[C@H](NC(=O)CNC(=O)[C@H](CC(=O)O)NC(=O)[C@H](CCC(N)=O)NC(=O)CNC(=O)[C@@H]1C[C@@H](O)CN1)C(=O)N[C@@H](C)C(=O)NCC(=O)N1CCC[C@H]1C(=O)N[C@@H](CCCCN)C(=O)O [YY-101] (H-[Hyp]GQDGLAGPK-OH; N-terminus and C-terminus assumed)
- viability at 24 h, 0.001 µM ([1]; PBMC + LPS(5 ug/ml) + compound 0.001 uM): 84.3 ± 2.6%
- viability at 24 h, 0.01 µM ([1]; PBMC + LPS(5 ug/ml) + compound 0.01 uM): 77.3 ± 5%
- viability at 24 h, 0.1 µM ([1]; PBMC + LPS(5 ug/ml) + compound 0.1 uM): 75.7 ± 4.7%
- viability at 24 h, 1 µM ([1]; PBMC + LPS(5 ug/ml) + compound 1 uM): 66.7 ± 5.8%
- viability at 24 h, 10 µM ([1]; PBMC + LPS(5 ug/ml) + compound 10 uM): 73.7 ± 4.8%
- viability at 24 h, 100 µM ([1]; PBMC + LPS(5 ug/ml) + compound 100 uM): 76.7 ± 5.2%
- viability at 24 h, 0.01 µM ([1]; PBMC + compound 0.01 uM, no LPS): 85 ± 2%
- viability at 24 h, 0.1 µM ([1]; PBMC + compound 0.1 uM, no LPS): 84%
- viability at 24 h, 1 µM ([1]; PBMC + compound 1 uM, no LPS): 89.5 ± 2.5%
- viability at 24 h, 10 µM ([1]; PBMC + compound 10 uM, no LPS): 86 ± 1%
- viability at 24 h, 100 µM ([1]; PBMC + compound 100 uM, no LPS): 86.5 ± 1.5%
- Concentration (IFN-gamma) (IFN-gamma; [2]): 2439.1 pg/mL
- conc/live cell (IFN-gamma) (IFN-gamma; [2]): 378.6 pg/10^5
- Concentration (IFN-gamma) (IFN-gamma; [3]): 2345.3 pg/mL and 2706.6 pg/mL and 2265.5 pg/mL
- conc/live cell (IFN-gamma) (IFN-gamma; [3]): 411.5 pg/10^5 and 381.2 pg/10^5 and 343.3 pg/10^5
- Concentration (IFN-gamma) (IFN-gamma; [4]): 3133.1 pg/mL
- conc/live cell (IFN-gamma) (IFN-gamma; [4]): 507.8 pg/10^5
- Concentration (IFN-gamma) (IFN-gamma; [5]): 3435.7 pg/mL and 3322.0 pg/mL and 2641.6 pg/mL
- conc/live cell (IFN-gamma) (IFN-gamma; [5]): 536.8 pg/10^5 and 553.7 pg/10^5 and 433.0 pg/10^5
- Concentration (IFN-gamma) (IFN-gamma; [6]): 1841.4 pg/mL
- conc/live cell (IFN-gamma) (IFN-gamma; [6]): 313.6 pg/10^5
- Concentration (IFN-gamma) (IFN-gamma; [7]): 2024.2 pg/mL and 1601.1 pg/mL and 1899.0 pg/mL
- conc/live cell (IFN-gamma) (IFN-gamma; [7]): 326.5 pg/10^5 and 307.9 pg/10^5 and 306.3 pg/10^5
- Concentration (IFN-gamma) (IFN-gamma; [8]): 2318.4 pg/mL
- conc/live cell (IFN-gamma) (IFN-gamma; [8]): 355.2 pg/10^5
- Concentration (IFN-gamma) (IFN-gamma; [9]): 2480.1 pg/mL and 2437.0 pg/mL and 2038.3 pg/mL
- conc/live cell (IFN-gamma) (IFN-gamma; [9]): 393.7 pg/10^5 and 343.2 pg/10^5 and 328.8 pg/10^5
- Concentration (IFN-gamma) (IFN-gamma; [10]): 2654.7 pg/mL
- conc/live cell (IFN-gamma) (IFN-gamma; [10]): 406.4 pg/10^5
- Concentration (IFN-gamma) (IFN-gamma; [11]): 3058.1 pg/mL and 2593.6 pg/mL and 2312.4 pg/mL
- conc/live cell (IFN-gamma) (IFN-gamma; [11]): 509.7 pg/10^5 and 405.2 pg/10^5 and 304.3 pg/10^5
- Concentration (IFN-gamma) (IFN-gamma; [12]): 1939.0 pg/mL
- conc/live cell (IFN-gamma) (IFN-gamma; [12]): 333.7 pg/10^5
- Concentration (IFN-gamma) (IFN-gamma; [13]): 1943.2 pg/mL and 2122.4 pg/mL and 1751.5 pg/mL
- conc/live cell (IFN-gamma) (IFN-gamma; [13]): 308.4 pg/10^5 and 342.3 pg/10^5 and 350.3 pg/10^5
- Concentration (IFN-gamma) (IFN-gamma; [14]): 20.8 pg/mL
- conc/live cell (IFN-gamma) (IFN-gamma; [14]): 4.2 pg/10^5
- Concentration (IFN-gamma) (IFN-gamma; [15]): 12.5 pg/mL and 29.1 pg/mL
- conc/live cell (IFN-gamma) (IFN-gamma; [15]): 2.4 pg/10^5 and 6.1 pg/10^5
- Concentration (IFN-gamma) (IFN-gamma; [16]): 20.8 pg/mL
- conc/live cell (IFN-gamma) (IFN-gamma; [16]): 3.9 pg/10^5
- Concentration (IFN-gamma) (IFN-gamma; [17]): 12.5 pg/mL and 29.1 pg/mL
- conc/live cell (IFN-gamma) (IFN-gamma; [17]): 2.8 pg/10^5 and 5.0 pg/10^5
- Concentration (IFN-gamma) (IFN-gamma; [18]): 18.1 pg/mL
- conc/live cell (IFN-gamma) (IFN-gamma; [18]): 3.3 pg/10^5
- Concentration (IFN-gamma) (IFN-gamma; [19]): 12.5 pg/mL and 23.7 pg/mL
- conc/live cell (IFN-gamma) (IFN-gamma; [19]): 2.3 pg/10^5 and 4.3 pg/10^5
- Concentration (IFN-gamma) (IFN-gamma; [20]): 50.9 pg/mL
- conc/live cell (IFN-gamma) (IFN-gamma; [20]): 8.1 pg/10^5
- Concentration (IFN-gamma) (IFN-gamma; [21]): 67.3 pg/mL and 34.4 pg/mL
- conc/live cell (IFN-gamma) (IFN-gamma; [21]): 10.5 pg/10^5 and 5.6 pg/10^5
- Concentration (IFN-gamma) (IFN-gamma; [22]): 36.8 pg/mL
- conc/live cell (IFN-gamma) (IFN-gamma; [22]): 5.6 pg/10^5
- Concentration (IFN-gamma) (IFN-gamma; [23]): 49.9 pg/mL and 23.7 pg/mL
- conc/live cell (IFN-gamma) (IFN-gamma; [23]): 7.8 pg/10^5 and 3.4 pg/10^5
